Experimental data: patent US10183915B2, “Axially chiral isomers, and preparation methods therefor and pharmaceutical uses thereof” (MEDSHINE DISCOVERY INC., priority 2015, dated 2019)
Where two headings read alike, the source gives them in different places.

Experiments:
[1] = Stability of solid compounds in ambient temperature (15° C., nitrogen cabinet, dark; SFC chiral purity); format: physicochemical; details: for Enantiomer Excess of the Compound: solid
Protocol: Test 2: Evaluation of the Stability of Solid Compounds in Ambient Temperature.
20 mg of test compound was placed into 5 mL brown transparent sealed container with stopper and stoned in the nitrogen cabinet (15° C.) in the dark. After the preset storage time, about 2 mg of test compound was accurately weighed, added into ethanol to prepare 1 mg/mL ethanol solution. The purity and chiral purity of the compound was detected by high performance liquid chromatography (HPLC) or LC-MS (LCMS) and supercritical fluid chromatography (SFC).

[2] = Stability of compounds in DMSO solutions (heated; SFC chiral purity); format: physicochemical; details: for Enantiomer Excess of Compound: DMSO solution
Protocol: Example 4: Evaluation of the Stability of Compounds in DMSO Solutions
An appropriate amount of test compound was accurately weighed, added into DMSO to obtain a DMSO solution. The DMSO solution of the compound was stirred in a heated oil bath. At the end of the test, a sample amount of the DMSO solution was diluted with ethanol and the purity and chiral purity of the compound was detected by high performance liquid chromatography (HPLC) or LC-MS (LCMS) and supercritical fluid chromatography (SFC).

[3] = Stability of compounds in human plasma; format: in vitro ADME
Protocol: (§1) Test 5: Evaluation of the Stability of Compounds in Rat Plasma and Human Plasma
(§2) 2. Experimental Procedures and Methods • 2.1 Prior to the experiment, the frozen plasma stored at −40° C. was thawed at room temperature and incubated in a 37° C. water bath for 5-10 min; centrifuged at 4000 rpm for 5 min, to remove impurities and lipids in the plasma. Measured the value of pH, if required, adjusted it to 7.4±0.1. • 2.2 Prepared 400 μM intermediate solution by diluting 4 μL of the working solution (10 mM) with 96 μL DMSO. • 2.3 Preparation of incubation samples: Remove 3 μL of intermediate solution (400 μM) to mix with 597 μL of blank plasma to achieve 2 μM of final concentration. Incubate each time point samples (0 min, 10 min, 30 min, 60 min, 120 min, in duplicate) at 37° C. in water bath. • 2.4 An aliquot of 100 μL samples of the final spiked plasma for each time point were removed to sample collected plates, added 400 μL of stop solution (200 ng/mL Tolbutamide plus 20 ng/mL Buspirone in 50% ACN/MeOH) to precipitate protein. Mixed thoroughly. • 2.5 Centrifuged each plate at 4,000 rpm for 20 min. Transfered an aliquot of supernatant (100 μL) from each well to sample plate and mixed with 200 μL ultra pure water. Shaked the plate at 800 rpm for about 10 min before submitting to LC-MS/MS analysis. 3. Experimental Data Analysis
(§3) The ratio of the peak area to the internal standard peak area was used to assess the decrease of the test compound to be measured. The % remaining of the test compound after incubation in plasma was calculated using following equation: % Remaining=100×(PAR at appointed incubation time/PAR at T0 time)
(§4) wherein PAR is the peak area ratio of analyte versus internal standard (IS)
(§5) The appointed incubation time points are: 0 min, 10 min, 30 min, 60 min, 120 min; T0: Samples prior to incubation.

[4] = Stability of compounds in SD rat plasma; format: in vitro ADME; details: for Recovery (% remaining): SD rat plasma, 2 μM, 37° C.
Protocol: as §1, §2, §3, §4, §5

[5] = In vivo pharmacokinetic study in male Sprague-Dawley rats (IV and PO); parameters: species or system Sprague-Dawley rat; details: for MRT inf: read-out: MRT0-inf
Protocol: Test 6: In Vivo Pharmacokinetic Study of the Test Compounds in Rats
To study the pharmacokinetic behavior of the compounds in rats and to evaluate their pharmacokinetic characteristics, their concentrations in plasma were determined by LC/MS/MS.
Appropriate amount of sample was added to a certain amount of pure water, the pH were adjusted to 7-8, to prepare to be 1 mg/mL (filtered and clarified) and 2 mg/mL (with a few particles of suspension) for IV and PO administration. • 2.4 Administration • 18 male SD rats were randomly assigned to 6 treatment groups, 3 rats in each group. Male rats were administrated IV and PO respectively after fasting overnight. The IV dosage was 2 mg/kg, the dose volume was 2 mL/kg, the PO dosage was 10 mg/kg, and the dose volume was 5 mL/kg. 3. Experimental Procedure
For IV group, 250 μL blood samples were collected before administration, and 0.083, 0.25, 0.5, 1, 2, 4, 8, 24 hours after administration, and placed in K2-EDTA anticoagulant tube, centrifuged at 3000 rpm for 15 minutes, plasma was separated, stored at −80° C. For PO Group, blood samples were collected before administration, and 0.25, 0.5, 1, 2, 4, 8, 24 hours after administration, and the other operations were the same as group IV. The content of the test compounds in the plasma of rats after administration of IV and PO were determined by LC/MS/MS method. The linear range of the assay was 6.00-18000 nM, and the lower limit of quantification was 6 nM; the plasma samples were analyzed by pretreatment with precipitated proteins.

[6] = male SD rats, IV 2 mpk, 2 mg/kg
[7] = male, Sprague-Dawley, rat, plasma, iv, 2 mg/kg, male SD rats, IV 2 mpk
[8] = male, Sprague-Dawley, rat, plasma, po, 10 mg/kg, male SD rats, PO 10 mpk

O=C(O)CSc1nnc(Br)n1-c1ccc(C2CC2)c2ccccc12 (single isomer, unassigned) [(+)-Lesinurad]
Enantiomer Excess of the Compound ([1]; storing time 0 day): 95.9%
Enantiomer Excess of the Compound ([1]; storing time >80 days): Unchanged
Stability of the solid powder (SFC purity) ([1]; storing over 80 days): very stable
Enantiomer Excess of Compound ([2]; 80° C., 0 h): 95.9%
Enantiomer Excess of Compound ([2]; 80° C., 2 × 24 h): Unchanged
Enantiomer Excess of Compound ([2]; 80° C., 4 × 24 h): Unchanged
Enantiomer Excess of Compound ([2]; 80° C., 2 h): Unchanged
Enantiomer Excess of Compound ([2]; 80° C., 4 h): Unchanged
Enantiomer Excess of Compound ([2]; 80° C., 8 h): Unchanged
Enantiomer Excess of Compound ([2]; 80° C., 24 h): Unchanged
Enantiomer Excess of Compound ([2]; 120° C., 0 h): 95.9%
Enantiomer Excess of Compound ([2]; 120° C., 2 × 24 h): Unchanged
Enantiomer Excess of Compound ([2]; 120° C., 4 × 24 h): Unchanged
Enantiomer Excess of Compound ([2]; 120° C., 2 h): Unchanged
Enantiomer Excess of Compound ([2]; 120° C., 4 h): Unchanged
Enantiomer Excess of Compound ([2]; 120° C., 8 h): Unchanged
Enantiomer Excess of Compound ([2]; 120° C., 24 h): Unchanged
Enantiomer Excess of Compound ([2]; 160° C., 0 h): 95.9%
Enantiomer Excess of Compound ([2]; 160° C., 8 h): Unchanged
Stability in DMSO solutions (SFC purity) ([2]; heating to 80° C., 120° C. and up to 160° C.): very stable
Stability after co-incubation with human plasma ([3]; 2 hours): very stable
Recovery (% remaining) ([3]; human plasma, 2 μM, 37° C., 120 min): 100.4%
recovery at 0 min, 2 μM ([3]; human, plasma, pH 7.4, human plasma, 2 μM, 37° C., 0 min, read-out: Recovery (% remaining)): 100%
recovery at 10 min, 2 μM ([3]; human, plasma, pH 7.4, human plasma, 2 μM, 37° C., 10 min, read-out: Recovery (% remaining)): 100%
recovery at 30 min, 2 μM ([3]; human, plasma, pH 7.4, human plasma, 2 μM, 37° C., 30 min, read-out: Recovery (% remaining)): 99.5%
recovery at 60 min, 2 μM ([3]; human, plasma, pH 7.4, human plasma, 2 μM, 37° C., 60 min, read-out: Recovery (% remaining)): 99.4%
Stability after co-incubation with SD-rat plasma ([4]; 2 hours): very stable
Recovery (% remaining) ([4]; 30 min): 100.3%
Recovery (% remaining) ([4]; 60 min): 99.7%
Recovery (% remaining) ([4]; 120 min): 101.2%
Transformation of the atropisomer in vivo ([5]; SD rats, IV and PO): no transformation was observed
AUC0-inf [5, 6]: 15.03902 ± 1.0268 µM·h
Cl [5, 6]: 5.50 ± 0.36 mL/min/kg
Bioavailability ([5]; male SD rats, PO 10 mpk vs IV 2 mpk): 44.65%
AUC0-inf ([5]; male SD rats, PO 10 mpk, 10 mg/kg): 32.68473 ± 13.43235 µM·h
C0 [5, 7]: 11.5 ± 2.72 µM
half-life [5, 7]: 1.61 ± 0.11 h
MRT inf [5, 7]: 2.08 ± 0.08 h
Vd ([5]; male, Sprague-Dawley, rat, plasma, iv, 2 mg/kg, male SD rats, IV 2 mpk, read-out: Vdss): 0.69 ± 0.03 L/kg
Cmax [5, 8]: 7.76 ± 5.15 µM
half-life [5, 8]: 2.25 ± 0.02 h
MRT inf [5, 8]: 4.09 ± 0.87 h
Tmax ([5]; male, Sprague-Dawley, rat, plasma, po, 10 mg/kg, male SD rats, PO 10 mpk, read-out: Tmax): 3 ± 1.73 h
